Test results reported in patent publication US20230339854A1, “Negative Allosteric Modulation of GluN3-Containing N-Methyl-D-Aspartate Receptors” (Emory University, priority 2020, published 2023).
≈ marks a conversion by molar mass, not a printed value. Where “and” joins values, the source holds several entries; their conditions need not be identical. Equal values may be shown once. Read-outs that look alike come from different tables or passages of the source.

Columns and labels:
[1] = tested on: GluN1/GluN2 NMDA receptors (GluN2A, GluN2B, GluN2C, GluN2D); assay: Recombinant GluN1/GluN2 NMDA receptors in Xenopus oocytes (selectivity); type: cell-based, rat
[2] = tested on: GluA1-4 AMPA receptors; assay: AMPA receptors in Xenopus oocytes (selectivity); type: cell-based, rat, human; settings: 20 μM
[3] = tested on: GABA receptors; assay: GABA receptors in Xenopus oocytes (selectivity); type: cell-based, rat; settings: 20 μM
Protocol: (§1) The numbers of oocytes recorded are in parentheses.
(§2) The cDNA was linearized by restriction enzymes (Thermo Fisher Scientific, Lithuania), and the cRNA encoding the receptor subunits was synthesized from the linear template cDNA using the mMESSAGE mMACHINE kit (Invitrogen/Thermo Fisher Scientific, Lithuania). The α1β1δγ nAChR subunits were injected at a 1:1:1:1 ratio while α4 […] nAChR subunits were injected at a 1:1 ratio. The cDNAs encoding GABA and glycine subunits were provided by Dr. D. Weiss (University of Texas Health Science Center at San Antonio). The cDNAs encoding nAChR subunits were provided by Drs. R. Papke (University of Florida) and S. Heinemann (Salk Institute). The cDNA encoding the purinergic receptor was provided by Dr. R. Hume (University of Michigan).
(§3) Responses in the presence of EU1180-438 were expressed as a percent of control calculated as the average of the responses before and after EU1180-438 exposure. […]
(§4) Defolliculated Xenopus laevis oocytes (stage V-VI) were obtained from Ecocyte BioScience (Austin, Texas), or prepared from commercially available Xenopus ovaries (Xenopus 1, Dexter, MI) as previously described (Hansen, et al., Mol. Pharmacol., 2013). […] Recording electrodes were filled with 0.3-3.0 M KCl, and current responses were recorded at a holding potential of −40 mV.

[4] = tested on: nicotinic receptors; assay: Nicotinic acetylcholine receptors in Xenopus oocytes (selectivity); type: cell-based, rat; settings: 20 μM
Protocol: as §1, §2, §3, §4

[5] = Maximum solubility by nephelometry; type: physicochemical; settings: aqueous buffer, kinetic from dmso stock; oocyte recording buffer (pH 7.4)
Protocol: The maximum solubility for the synthesized compounds was determined using a BMG Labtech Nephelostar™ nephelometer according to the manufacturer's instructions. For example, EU1180-438 was taken up in DMSO to prepare a 10 mM stock solution. The 10 mM solution was serially diluted into eleven concentrations (10, 5, 2.5, 1.25, 0.625, 0.3125, 0.1563, 0.0781, 0.0391, 0.0193, and 0.0098 mM) at the top of a clear-bottom 96-well plate. These were then each distributed into the subsequent 7 wells in 2.5 μL increments and diluted 100-fold (2.5 μL to 250 μL) with oocyte recording buffer (pH 7.4) into concentrations of 100, 50, 25, 12.5, 6.25, 3.125, 1.563, 0.781 0.391, 0.193, and 0.098 μM. The 96-well plate was shaken gently for 90 minutes before analysis.

[6] = In vivo pharmacokinetics and brain penetration in mice; parameters: species or system mouse
Protocol: EU1180-438 was dosed at 20 mg/kg intraperitoneal in seven freely-fed male C57BL/6 mice. EU1180-438 was formulated in 5% DMA, 10% PEG, 30% HPBCD, qs to volume w/water.
Plasma was sampled at seven points: pre-dose, 0.25, 0.5, 1, 2, 4, and 8 hours (n=3 per time point, 21 plasma samples per treatment group). […] Samples were analyzed via LC-MS/MS to quantify the amount of parent compound present in each sample.
EU1180-438 was tested in male C57BL/6 mice for brain penetrability. After a single intraperitoneal dose of 20 mg/kg the concentration of EU1180-438 in the plasma was measured. […] The concentration of EU1180-438 in the brain was also measured to determine if the compound can pass the blood-brain barrier. The compound was detected in the brain tissue up to 8 hours after dosage administration.

[7] = mice, 20 mg/kg intraperitoneal, 0.25 hour, 20 mg/kg
[8] = mice, 20 mg/kg intraperitoneal, 1 hour, 20 mg/kg
[9] = mice, 20 mg/kg intraperitoneal, 8 hour, 20 mg/kg

With `COc1ccc(OCC(c2ccc(OC)cc2)N2Cc3ccccc3C2=O)cc1` (racemic) [EU1180-438, 2-(2-(4-methoxyphenoxy)-1-(4-methoxyphenyl)ethyl)isoindolin-1-one] the “activity toward recombinant GluN1/GluN2 NMDA receptors (GluN2A-D)” value [1] was “no detectable activity”, the “activity at GluN1/GluN2 NMDA receptors” value ([1]; 20 μM, rat GluN1-1a/GluN2A-D) was “virtually no activity” and the “activity at GluA1-4 AMPA receptors” value [2] was “virtually no activity”. For the same compound, the “activity at GABA receptors” value [3] was “virtually no activity”, the “activity at nicotinic receptors” value [4] was “inhibited some, but not all, nicotinic receptors” and the solubility at 90 min [5] was 37 µM (≈ 14.4 µg/mL). The “time after dosage up to which compound was detected in brain tissue” value ([6]; male C57BL/6 mice, 20 mg/kg intraperitoneal) was “up to 8 hours”, the “max concentration in plasma” value ([6]; male C57BL/6 mice, single intraperitoneal dose of 20 mg/kg) was 2.75 µM and the concentration at 0.25 h ([6]; male, C57BL/6, mouse, brain, ip, 20 mg/kg, mice, 20 mg/kg intraperitoneal, 0.25 hour, read-out: Brain Concentration) was 3.68 µM. For the same compound, the Kp at 0.25 h ([6]; male, C57BL/6, mouse, brain, ip, 20 mg/kg, mice, 20 mg/kg intraperitoneal, 0.25 hour, read-out: Brain to Plasma Ratio) was 1.6, the Kp at 0.25 h ([6]; male, C57BL/6, mouse, brain, ip, 20 mg/kg, mice, 20 mg/kg intraperitoneal, 0.25 hour, read-out: Mean Ratio (brain to plasma)) was 1.74 and the concentration at 1 h ([6]; male, C57BL/6, mouse, brain, ip, 20 mg/kg, mice, 20 mg/kg intraperitoneal, 1 hour, read-out: Brain Concentration) was 1960 nM. The Kp at 1 h ([6]; male, C57BL/6, mouse, brain, ip, 20 mg/kg, mice, 20 mg/kg intraperitoneal, 1 hour, read-out: Brain to Plasma Ratio) was 1.57, the Kp at 1 h ([6]; male, C57BL/6, mouse, brain, ip, 20 mg/kg, mice, 20 mg/kg intraperitoneal, 1 hour, read-out: Mean Ratio (brain to plasma)) was 1.79 and the concentration at 2 h ([6]; male, C57BL/6, mouse, brain, ip, 20 mg/kg, mice, 20 mg/kg intraperitoneal, 2 hour, read-out: Brain Concentration) was 1050 nM. For the same compound, the Kp at 2 h ([6]; male, C57BL/6, mouse, brain, ip, 20 mg/kg, mice, 20 mg/kg intraperitoneal, 2 hour, read-out: Mean Ratio (brain to plasma)) was 0.88, the concentration at 8 h ([6]; male, C57BL/6, mouse, brain, ip, 20 mg/kg, mice, 20 mg/kg intraperitoneal, 8 hour, read-out: Brain Concentration) was 60 nM and the Kp at 8 h ([6]; male, C57BL/6, mouse, brain, ip, 20 mg/kg, mice, 20 mg/kg intraperitoneal, 8 hour, read-out: Brain to Plasma Ratio) was 1.37. It also gave a Kp at 8 h ([6]; male, C57BL/6, mouse, brain, ip, 20 mg/kg, mice, 20 mg/kg intraperitoneal, 8 hour, read-out: Mean Ratio (brain to plasma)) of 1.02, a concentration at 0.25 h ([6]; male, C57BL/6, mouse, plasma, ip, 20 mg/kg, mice, 20 mg/kg intraperitoneal, 0.25 hour, read-out: Plasma Concentration) of 2.3 µM and a concentration at 1 h ([6]; male, C57BL/6, mouse, plasma, ip, 20 mg/kg, mice, 20 mg/kg intraperitoneal, 1 hour, read-out: Plasma Concentration) of 1250 nM. For the same compound, the concentration at 2 h ([6]; male, C57BL/6, mouse, plasma, ip, 20 mg/kg, mice, 20 mg/kg intraperitoneal, 2 hour, read-out: Plasma Concentration) was 890 nM, the concentration at 8 h ([6]; male, C57BL/6, mouse, plasma, ip, 20 mg/kg, mice, 20 mg/kg intraperitoneal, 8 hour, read-out: Plasma Concentration) was 50 nM and the “Brain to Plasma Ratio” value [6, 7] was 1.98 and 1.64. The “Plasma Concentration” value [6, 7] was 2.05 µM and 2.21 µM, the concentration at 0.25 h ([6]; mice, 20 mg/kg intraperitoneal, 0.25 hour, 20 mg/kg, read-out: Brain Concentration) was 4.06 µM and 3.63 µM and the “Brain to Plasma Ratio” value [6, 8] was 1.96 and 1.83. For the same compound, the “Plasma Concentration” value [6, 8] was 1.04 µM and 1.17 µM, the concentration at 0.25 h ([6]; mice, 20 mg/kg intraperitoneal, 1 hour, 20 mg/kg, read-out: Brain Concentration) was 2.04 µM and 2.14 µM and the “Plasma Concentration” value ([6]; mice, 20 mg/kg intraperitoneal, 2 hour, 20 mg/kg) was 0.92 µM and 0.96 µM. For the same compound, the concentration at 0.25 h ([6]; mice, 20 mg/kg intraperitoneal, 2 hour, 20 mg/kg, read-out: Brain Concentration) was 0.66 µM and 0.69 µM, the “Brain to Plasma Ratio” value [6, 9] was 0.90 and 0.72 and the “Plasma Concentration” value [6, 9] was 0.04 µM. The concentration at 0.25 h ([6]; mice, 20 mg/kg intraperitoneal, 8 hour, 20 mg/kg, read-out: Brain Concentration) was 0.04 µM and 0.03 µM and the half-life ([6]; mouse, ip, plasma, male C57BL/6 mice, 20 mg/kg intraperitoneal) was 94.2 min.
